Six compounds from ChEMBL document CHEMBL3856200, “Isolation and Structure of Cancer Cell Growth Inhibitory Tetracyclic Triterpenoids from the Zimbabwean Monadenium lugardae” (2016) can be followed below.

Holding throughout (format): functional
A short description of experiment [1]: Cytotoxicity against human SF268 cells assessed as growth inhibition after 48 hrs by sulforhodamine B assay. Particulars: SF-268, 48 h.
A short description of experiment [2]: Cytotoxicity against human NCI-H460 cells assessed as growth inhibition after 48 hrs by sulforhodamine B assay. The note with it: NCI-H460, 48 h. (In general: In SRB staining, fixed cells bind dye roughly in proportion to their protein.)
Experiment [3] in a line: Cytotoxicity against human DU145 cells assessed as growth inhibition after 48 hrs by sulforhodamine B assay. Particulars: DU-145, 48 h.
The nature of experiment [4]: Cytotoxicity against mouse P388 cells assessed as growth inhibition after 48 hrs by coulter particle counting method. Particulars: P388, 48 h, read-out: ED50 (the source's name).
Experiment [5] in a line: Cytotoxicity against human KM20L2 cells assessed as growth inhibition after 48 hrs by sulforhodamine B assay. Particulars: KM-20L2, 48 h.
A short description of experiment [6]: Cytotoxicity against human BxPC3 cells assessed as growth inhibition after 48 hrs by sulforhodamine B assay. Particulars: BXPC-3, 48 h.
Experiment [7] can be described thus: Cytotoxicity against human MCF7 cells assessed as growth inhibition after 48 hrs by sulforhodamine B assay. The note with it: MCF7, 48 h.

Structures are written as SMILES. Converted amounts (≈) assume the structure as drawn.

As for `C[C@H](C/C=C/C(C)(C)O)[C@H]1CC[C@@]2(C)C3=C(CC[C@]12C)[C@@]1(C)CC[C@H](O)C(C)(C)[C@@H]1CC3`, the GI50 in experiment [1] was 1.9 µg/mL (≈ 4.29 µM); in experiment [2], 1.9 µg/mL (≈ 4.29 µM); in experiment [3] it was 1.9 µg/mL (≈ 4.29 µM); in experiment [5] it was 1.8 µg/mL (≈ 4.07 µM); in experiment [6] it was 1.8 µg/mL (≈ 4.07 µM); in experiment [7], 2 µg/mL (≈ 4.52 µM). Besides, in experiment [4], the EC50 was over 10 µg/mL.
As for `C=C(C)[C@@H](O)CC[C@H](C)[C@@H]1CC=C2[C@]3(C)CC[C@H]4C(C)(C)[C@@H](O)CC[C@]4(C)[C@H]3CC[C@]21C`, the GI50 in experiment [1] is 0.33 µg/mL (≈ 0.745 µM); in experiment [2], 0.91 µg/mL (≈ 2.06 µM); in experiment [3], 0.65 µg/mL (≈ 1.47 µM); in experiment [5], 0.71 µg/mL (≈ 1.6 µM); in experiment [6] it was 0.83 µg/mL (≈ 1.87 µM); in experiment [7] it was 0.79 µg/mL (≈ 1.78 µM). Also, the EC50 in experiment [4] is over 10 µg/mL.
On to `C=C(C)C(O)CC[C@@H](C)[C@@H]1CC[C@]2(C)C3=C(CC[C@@]12C)[C@@]1(C)CC[C@H](O)C(C)(C)[C@@H]1CC3` (some centres not stated), for which the GI50 in experiment [1] is 1.4 µg/mL (≈ 3.16 µM); in experiment [2], 1.7 µg/mL (≈ 3.84 µM); in experiment [3], 1.5 µg/mL (≈ 3.39 µM); in experiment [5], 7 µg/mL (≈ 15.8 µM); in experiment [6], 1.5 µg/mL (≈ 3.39 µM); in experiment [7], 2.5 µg/mL (≈ 5.65 µM). In experiment [4], the EC50 is over 10 µg/mL.
In the case of `C=C(C)[C@H](O)CC[C@H](C)[C@@H]1CC=C2[C@]3(C)CC[C@H]4C(C)(C)[C@@H](O)CC[C@]4(C)[C@H]3CC[C@]21C`, the GI50 was 0.36 µg/mL (≈ 0.813 µM) in experiment [1]; 0.19 µg/mL (≈ 0.429 µM) in experiment [2]; 0.58 µg/mL (≈ 1.31 µM) in experiment [3]; over 1 µg/mL in experiment [5]; 0.2 µg/mL (≈ 0.452 µM) in experiment [6]; 0.68 µg/mL (≈ 1.54 µM) in experiment [7]. Further, the EC50 in experiment [4] was over 10 µg/mL.
As for `C[C@H](C/C=C/C(C)(C)O)[C@@H]1CC[C@]2(C)C3=C(CC[C@@]12C)[C@@]1(C)CC[C@H](O)C(C)(C)[C@@H]1CC3`, the GI50 in experiment [1] turned out to be 2.2 µg/mL (≈ 4.97 µM); in experiment [2], 1.9 µg/mL (≈ 4.29 µM); in experiment [3] it was 1.9 µg/mL (≈ 4.29 µM); in experiment [5], 2 µg/mL (≈ 4.52 µM); in experiment [6], 1.8 µg/mL (≈ 4.07 µM); in experiment [7] it was 2.1 µg/mL (≈ 4.74 µM). In addition, in experiment [4], the EC50 is over 10 µg/mL.
With `C[C@@H](C/C=C/C(C)(C)O)[C@H]1CC[C@@]2(C)C3=C(C(=O)C[C@@]12C)[C@@]1(C)CC[C@H](O)C(C)(C)[C@@H]1CC3`, the GI50 in experiment [1], in experiment [2], in experiment [3], in experiment [5], in experiment [6] and in experiment [7] was over 1 µg/mL throughout. Moreover, the EC50 in experiment [4] was over 10 µg/mL.

In general, GI50 refers to the concentration at which growth is held to half of that of the control.
